Experimental data as given in US20100285959A1, “HERBICIDAL MIXTURES” (priority 2006, published 2010).

Tests used:
Russian thistle (SASKR) = experiment: Test 22 growth chamber, postemergence; assay type: in vivo, Salsola kali; conditions: 25 DAA
Method: A test was conducted to evaluate the effects on winter barley (HORVW, Hordeum vulgare L.), winter wheat (TRZAW, Triticum aestivum L.), and several weed species of mixtures of Compound 2 with the commercial herbicides (2,4-dichlorophenoxy)acetic acid (2,4-D) and (4-chloro-2-methylphenoxy)acetic acid (MCPA), auxin mimics. […] Plants were treated postemergence at the 2-4 leaf growth stage, except KCHSC, SASKR and STEME which were in the 4-8 leaf growth stage. Each treatment was replicated one time. […] Plants were watered as needed. […] Results are from single replicates.

yellow nutsedge (CYPES) [1] = experiment: Test 2 field trial, preemergence; assay type: in vivo, Cyperus esculentus; design: scale not given here
Excerpt: Corn seeds (hybrid ‘Pioneer 31G96’) were planted in mid spring season, 3.8 cm deep in a clay loam soil having 2% organic matter and a pH of 6.6. Plots were 6.1 m long by 3.0 m wide with rows spaced 76 cm apart. Seeds were spaced 15 cm apart within the rows. The field was managed using conventional tillage practices. […] A few of the weed species could not be evaluated at every timing. […] Results are the means of the three replicates.

wheat (TRZAW) = experiment: Test 30 growth chamber, postemergence; assay type: in vivo, Triticum aestivum
Method: A growth chamber test was conducted to evaluate the effects on the plant species wheat (TRZAW, Triticum aestivum L.) and barley (HORVX, Hordeum vulgare L.) with mixtures of Compound 1 and Compound 2 with glycerol. Wheat and barley seeds were planted in a sandy loam soil having 0.9% organic matter and a pH of 6.3. […] Wheat and barley plants were treated postemergence at the two leaf growth stage for Compound 1 and at the three leaf growth stage for Compound 2. Each treatment was replicated one time. […] Plants were watered as needed. […] Colby's Equation was used to determine herbicidal effects expected from the mixtures.

morningglory (IPOSS) = experiment: Test 7 field trial, preemergence; assay type: in vivo, Ipomoea L. spp.
Method: Plots were 7.6 m long by 3.0 m wide with rows spaced 76 cm apart. Seeds were spaced 15 cm apart within the rows. The field was managed using conventional tillage practices. […] Wild radish was evaluated 14 and 28 days after application. […] Results are the means of the three replicates.

corn (ZEAMD) = experiment: Test 9 field trial, emerged weeds before corn planting; assay type: in vivo, Zea mays ssp. indentata; conditions: 57 DAA; g a.i./ha: Cpd 2 100, Glyphosate 1540, Paraquat 1150
Method: (§1) Corn seeds (hybrid ‘Pioneer 34M91 RR’) were planted in mid spring season, about 3.8 cm deep in a silty clay loam soil having a pH of 6.7. Plots were 9.1 m long by 3.0 m. The field was managed using no-till practices. […] Compound 2 and paraquat treatments, alone and in combination, also included a surfactant. Glyphosate, alone and with Compound 2, included ammonium sulfate in the treatment mixture. […] The effects on the weeds in the treated plots and untreated control plots were recorded 7, 14, 23, 30 and 57 days after application. Most of the weed species could not be evaluated at every timing. Corn response was only evaluated 57 days after application. […] Results are the means of the three replicates.

giant ragweed (AMBTR) = experiment: as above; assay type: in vivo, Ambrosia trifida; conditions: g a.i./ha: Cpd 2 100, Glyphosate 1540, Paraquat 1150
Method: as §1

shepherd's purse (CAPBP) = experiment: as above; assay type: in vivo, Capsella bursa-pastoris; conditions: g a.i./ha: Cpd 2 100, Glyphosate 1540, Paraquat 1150
Method: as §1

yellow nutsedge (CYPES) [2] = experiment: Test 14 field trial, preemergence, growth as percent of control; assay type: in vivo, Cyperus esculentus
Excerpt: Corn seeds (hybrid ‘Pioneer 31G96 RR’) were planted in mid spring season, 3.8 cm deep in a clay loam soil having 2% organic matter and a pH of 6.6. Plots were 6.1 m long by 3.0 m wide with rows spaced 76 cm apart. Seeds were spaced 15 cm apart within the rows. The field was managed using conventional tillage practices. […] Yellow nutsedge was only evaluated 19 and 28 days after application, and ivyleaf morningglory could only be evaluated 28 days after application. […] Results are the means of the three replicates. This growth inhibition data was converted to results in the form of “plant growth as a percent of control plant growth” using the calculation “100 minus growth inhibition”. […] For “growth as a percent of control” data, Colby's Equation calculates the expected additive effect of herbicidal mixtures having two active ingredients as follows:
Ga+b=GaGb/100 • wherein Ga+b is the growth as a percent of control of plants treated with the mixture expected from additive contribution of the individual components, • Ga is the observed growth as a percent of control of plants treated with the first active ingredient at the same use rate as in the mixture, and • Gb is the observed growth as a percent of control of plants treated with the second active ingredient at the same use rate as in the mixture. For mixtures having three active ingredients, Colby's Equation to calculate the expected additive effect of herbicidal mixtures is as follows:
Ga+b+c=GaGbGc/10,000 • wherein Ga and Gb are as defined above and • Ga+b+c is the growth as a percent of control of plants treated with the mixture expected from additive contribution of the individual components, and • Gc is the observed growth as a percent of control of plants treated with the third active ingredient at the same use rate as in the mixture. When these two forms of Colby's Equation are used, if the observed effects on weeds are less than the expected values, the mixture is synergistic.

[3] = 18 DAA, g a.i./ha: Cpd 2 25, Atrazine 250
[4] = 18 DAA, g a.i./ha: Cpd 2 50, Atrazine 500
[5] = 18 DAA, g a.i./ha: Cpd 2 75, Atrazine 750
[6] = 18 DAA, g a.i./ha: Cpd 2 100, Atrazine 1000
[7] = 18 DAA, g a.i./ha: Cpd 2 150, Atrazine 1500
[8] = 28 DAA, g a.i./ha: Cpd 2 25, Atrazine 250
[9] = 28 DAA, g a.i./ha: Cpd 2 50, Atrazine 500
[10] = 28 DAA, g a.i./ha: Cpd 2 75, Atrazine 750
[11] = 28 DAA, g a.i./ha: Cpd 2 100, Atrazine 1000
[12] = 28 DAA, g a.i./ha: Cpd 2 150, Atrazine 1500
[13] = 55 DAA, g a.i./ha: Cpd 2 25, Atrazine 250
[14] = 55 DAA, g a.i./ha: Cpd 2 50, Atrazine 500
[15] = 55 DAA, g a.i./ha: Cpd 2 75, Atrazine 750
[16] = 55 DAA, g a.i./ha: Cpd 2 100, Atrazine 1000
[17] = 55 DAA, g a.i./ha: Cpd 2 150, Atrazine 1500

O=C(O)COc1ccc(Cl)cc1Cl [2,4-D, (2,4-dichlorophenoxy)acetic acid]
Postemergence SASKR Obs (Russian thistle (SASKR); 2,4-D or MCPA alone 250 g a.i./ha): 60

CCNc1nc(Cl)nc(NC(C)C)n1 [Atrazine, atrazine, reference compound]
CYPES Obs (yellow nutsedge (CYPES) [1]; [3]): 13
CYPES Obs (yellow nutsedge (CYPES) [1]; [4]): 18
CYPES Obs (yellow nutsedge (CYPES) [1]; [5]): 40
CYPES Obs (yellow nutsedge (CYPES) [1]; [6]): 28
CYPES Obs (yellow nutsedge (CYPES) [1]; [7]): 27
CYPES Obs (yellow nutsedge (CYPES) [1]; [8]): 0
CYPES Obs (yellow nutsedge (CYPES) [1]; [9]): 5
CYPES Obs (yellow nutsedge (CYPES) [1]; [10]): 0
CYPES Obs (yellow nutsedge (CYPES) [1]; [11]): 2
CYPES Obs (yellow nutsedge (CYPES) [1]; [12]): 0
CYPES Obs (yellow nutsedge (CYPES) [1]; [13]): 10
CYPES Obs (yellow nutsedge (CYPES) [1]; [14]): 13
CYPES Obs (yellow nutsedge (CYPES) [1]; [15]): 0
CYPES Obs (yellow nutsedge (CYPES) [1]; [16]): 62
CYPES Obs (yellow nutsedge (CYPES) [1]; [17]): 60

Nc1nc(C2CC2)nc(C(=O)O)c1Cl [Compound 1, 6-amino-5-chloro-2-cyclopropyl-4-pyrimidinecarboxylic acid]
TRZAW Obs (wheat (TRZAW); 18 DAA, Cpd 1 1 g a.i./ha): 30%
TRZAW Obs (wheat (TRZAW); 18 DAA, Cpd 1 4 g a.i./ha): 35%
TRZAW Obs (wheat (TRZAW); 18 DAA, Cpd 1 16 g a.i./ha): 45%

COC(=O)c1nc(C2CC2)nc(N)c1Cl [Compound 2, methyl 6-amino-5-chloro-2-cyclopropyl-4-pyrimidinecarboxylate]
CYPES Obs (yellow nutsedge (CYPES) [1]; [3]): 12
CYPES Obs (yellow nutsedge (CYPES) [1]; [4]): 18
CYPES Obs (yellow nutsedge (CYPES) [1]; [5]): 22
CYPES Obs (yellow nutsedge (CYPES) [1]; [6]): 25
CYPES Obs (yellow nutsedge (CYPES) [1]; [7]): 30
CYPES Obs (yellow nutsedge (CYPES) [1]; [8]): 0
CYPES Obs (yellow nutsedge (CYPES) [1]; [9]): 0
CYPES Obs (yellow nutsedge (CYPES) [1]; [10]): 0
CYPES Obs (yellow nutsedge (CYPES) [1]; [11]): 0
CYPES Obs (yellow nutsedge (CYPES) [1]; [12]): 0
CYPES Obs (yellow nutsedge (CYPES) [1]; [13]): 0
CYPES Obs (yellow nutsedge (CYPES) [1]; [14]): 0
CYPES Obs (yellow nutsedge (CYPES) [1]; [15]): 0
CYPES Obs (yellow nutsedge (CYPES) [1]; [16]): 0
CYPES Obs (yellow nutsedge (CYPES) [1]; [17]): 10
IPOSS Obs (morningglory (IPOSS); 14 DAA, 125 g a.i./ha): 100%
IPOSS Obs (morningglory (IPOSS); 14 DAA, 250 g a.i./ha): 100%
IPOSS Obs (morningglory (IPOSS); 14 DAA, 500 g a.i./ha): 100%
IPOSS Obs (morningglory (IPOSS); 28 DAA, 125 g a.i./ha): 100%
IPOSS Obs (morningglory (IPOSS); 28 DAA, 250 g a.i./ha): 100%
IPOSS Obs (morningglory (IPOSS); 28 DAA, 500 g a.i./ha): 100%
IPOSS Obs (morningglory (IPOSS); 62 DAA, 125 g a.i./ha): 100%
IPOSS Obs (morningglory (IPOSS); 62 DAA, 500 g a.i./ha): 100%
ZEAMD Obs (corn (ZEAMD)): 0%
AMBTR Obs (giant ragweed (AMBTR); 7 DAA): 85%
AMBTR Obs (giant ragweed (AMBTR); 14 DAA): 83%
AMBTR Obs (giant ragweed (AMBTR); 57 DAA): 89%
CAPBP Obs (shepherd's purse (CAPBP); 7 DAA): 23%
CAPBP Obs (shepherd's purse (CAPBP); 14 DAA): 17%
CAPBP Obs (shepherd's purse (CAPBP); 23 DAA): 7%
CAPBP Obs (shepherd's purse (CAPBP); 30 DAA): 0%
CAPBP Obs (shepherd's purse (CAPBP); 57 DAA): 0%
Obs growth % of control (yellow nutsedge (CYPES) [2]; 19 DAA, 75 g a.i./ha): 85%
Obs growth % of control (yellow nutsedge (CYPES) [2]; 19 DAA, 100 g a.i./ha): 78%
Obs growth % of control (yellow nutsedge (CYPES) [2]; 28 DAA, 75 g a.i./ha): 85%
Obs growth % of control (yellow nutsedge (CYPES) [2]; 28 DAA, 100 g a.i./ha): 90%
Postemergence SASKR Obs (Russian thistle (SASKR); Cpd 2 alone 4 g a.i./ha): 50
Postemergence SASKR Obs (Russian thistle (SASKR); Cpd 2 alone 8 g a.i./ha): 50
Postemergence SASKR Obs (Russian thistle (SASKR); Cpd 2 alone 16 g a.i./ha): 55
TRZAW Obs (wheat (TRZAW); 17 DAA, Cpd 2 1 g a.i./ha): 20%
TRZAW Obs (wheat (TRZAW); 17 DAA, Cpd 2 4 g a.i./ha): 20%
TRZAW Obs (wheat (TRZAW); 17 DAA, Cpd 2 16 g a.i./ha): 35%

O=C(O)CNCP(=O)(O)O [Glyphosate]
ZEAMD Obs (corn (ZEAMD)): 0%
AMBTR Obs (giant ragweed (AMBTR); 7 DAA): 25%
AMBTR Obs (giant ragweed (AMBTR); 14 DAA): 77%
AMBTR Obs (giant ragweed (AMBTR); 57 DAA): 85%
CAPBP Obs (shepherd's purse (CAPBP); 7 DAA): 52%
CAPBP Obs (shepherd's purse (CAPBP); 14 DAA): 73%
CAPBP Obs (shepherd's purse (CAPBP); 23 DAA): 88%
CAPBP Obs (shepherd's purse (CAPBP); 30 DAA): 98%
CAPBP Obs (shepherd's purse (CAPBP); 57 DAA): 100%

CCc1cccc(C)c1N(C(=O)CCl)[C@@H](C)COC [S-Metolachlor, S-metolachlor, reference compound]
IPOSS Obs (morningglory (IPOSS); 14 DAA, 1000 g a.i./ha): 48%
IPOSS Obs (morningglory (IPOSS); 28 DAA, 1000 g a.i./ha): 50%
IPOSS Obs (morningglory (IPOSS); 62 DAA, 1000 g a.i./ha): 13%
Obs growth % of control (yellow nutsedge (CYPES) [2]; 28 DAA, 1870 g a.i./ha): 8%
